Patent US11279733B2, “Peptide antibiotics” (priority 2017, dated 2022)
Values after ≈ are worked out from the molar mass of the structure shown. Like-named read-outs stand apart in the source and are kept apart here. Positions of bridges follow the written chain, without caps; N, C: chain ends. Non-standard residues stand in square brackets, D forms with d. Residues, ends and D or L forms follow the SMILES beside them. *: point of attachment. Decanoyl(3R-OH) = CCCCCCC[C@@H](O)CC(=O)*; dDab = NCC[C@@H](N)C(=O)O; Orn = NCCC[C@H](N)C(=O)O; Dab = NCC[C@H](N)C(=O)O; Dap = NC[C@H](N)C(=O)O

Tests used:
[1] = In vitro nephrotoxicity, GGT release from primary human kidney cells; format: cell-based; settings: pH 7.4
Description: (§1) hPT cells were derived from whole human kidneys procured by the International Institute for the Advancement of Medicine (Edison, N.J., USA). All tissue was scored by a pathologist as normal (i.e., derived from non-cancerous, non-diseased tissue). Cell isolation procedures were based on those originally described by Todd et al. (1996) and modified (Cummings and Lash, 2000; Cummings et al., 2000) with use of sterile conditions (i.e., all instruments and glassware were autoclaved and all buffers were filtered through a 0.2-μm pore-size filter). Renal cortex and outer stripe were cut into slices, washed with sterile PBS, minced, and the pieces were placed in a trypsinization flask filled with 300 ml of sterile, filtered Hanks' buffer, containing 25 mM NaHCO3, 25 mM HEPES, pH 7.4, 0.5 mM EGTA, 0.2% (w/v) bovine serum albumin, 50 μg/ml gentamicin, 1.3 mg/mL collagenase, and 0.59 mg/ml CaCl2), which was filtered prior to use. Whole kidneys were perfused with Wisconsin medium and kept on ice until they arrived at the laboratory, which was usually within 24 h of removal from the donor.
(§2) All buffers were continuously bubbled with 95% O2/5% CO2 and were maintained at 37° C. Minced cortical pieces from whole kidneys were subjected to collagenase digestion for 60 min, after which the supernatant was filtered through a 70-μm mesh filter to remove tissue fragments, centrifuged at 150×g for 7 min, and the pellet resuspended in Dulbecco's Modified Eagle's Medium: Ham's F12 Medium (DMEM/F12; 1/1). Approximately 5 to 7×10^6 cells were obtained per 1 g of human kidney cortical tissue.
(§3) hPT cells were resuspended in 2 mL of DMEM/F12 and diluted to 500 mL with cell culture medium, which was serum-free and hormonally-defined. Composition of this supplemented medium was based on earlier work establishing optimal conditions for primary culture of rat PT cells (Lash et al., 1995). Basal medium was a 1:1 mixture of DMEM/F12. […] Cells were seeded in a volume of 0.5 ml at a density of 50-100 μg protein per cm^2 (0.5-1.0×10^6 cells/ml) on 24-well plates. Cultures were grown at 37° C. in a humidified incubator under an atmosphere of 95% air/5% CO2 at pH 7.4. Cultures were grown to approximately 80%-90% confluence (generally 5-6 days) prior to experiments. Cells were harvested by either scraping the flasks with a Teflon scraper or by brief incubation with Cellstripper (Cellgro, Herndon, Va., USA) (in Ca^2+- and Mg^2+-free Hanks' buffer).
Release of gamm-glutanyltransferase was assessed according to Orlowski, M., Meister, A. 1963. γ-Glutamyl-p-nitroanilide: A new convenient substrate for determination and study of L- and D-γ-glutamyltranspeptidase activities (Biochim. Biophys. Acta 73: 679-681.)
A 2.5 mM substrate Solution was prepared from 67 mg γ-glutamyl-p-nitroanilide+264 mg glycylglycine in 100 mL of 0.05 M Tris, pH 8.2 (50 mM Tris, pH 8.2: 605 mg Tris/HCl per 100 mL).
For the assay in 96-well plates, 6-μL of sample and 0.3 mL substrate solution were added to each well. The absorbance was measured at 410 nm for the appearance of product, p-nitroanilide (molar extinction=8800 M^−1 cm^−1).

[2] = In vitro nephrotoxicity, LDH release from primary human kidney cells; format: cell-based; settings: pH 7.4
Description: as §1, §2, §3

[3] = system: Neisseria gonorrhoeae; assay: MIC determination, Neisseria gonorrhoeae; format: cell-based; settings: strain FA19 ATCC BAA-1838
Procedure, shortened: (§4)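 Mid-log cultures grown in Mueller Hinton broth at 37° C were tested by 2-fold broth microdilution at 5×10^5 CFU/mL final. Compounds were dissolved in water and tested over a final range of 32 to 0.015 μg/mL.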

[4] = system: P. aeruginosa GN_105, PmxR; settings: GN 105, PmxR
Procedure, shortened: as §4

[5] = system: P. aeruginosa ATCC 27853; settings: ATCC 27853
Procedure, shortened: as §4

[6] = system: A. baumannii ATCC 19606; settings: ATCC 19606
Procedure, shortened: as §4

[7] = system: K. pneumoniae ATCC BAA-2146, NDM-1 pos; settings: ATCC BAA-2146
Procedure, shortened: as §4

[8] = system: S. aureus ATCC 25923, MSSA; settings: ATCC 25923
Procedure, shortened: as §4

[9] = system: P. aeruginosa GN_043, PmxR; settings: polymyxin-resistant; for MIC, P. aeruginosa FADDI-PA070, PmxR: Table 5
Procedure, shortened: as §4

[10] = system: K. pneumoniae GN_102 PmxR; settings: GN 102 PmxR
Procedure, shortened: as §4

[11] = system: K. pneumoniae ATCC 700603, MDR; settings: ATCC 700603
Procedure, shortened: as §4

[12] = system: K. pneumoniae GN_106, PmxR; settings: GN 106, PmxR
Procedure, shortened: as §4

[13] = system: K. pneumoniae ATCC 13883; settings: ATCC 13883
Procedure, shortened: as §4

[14] = system: E. coli ATCC 25922; settings: ATCC 25922
Procedure, shortened: as §4

[15] = system: A. baumannii GN_093 PmxR; settings: GN 093 PmxR
Procedure, shortened: as §4

[16] = in vitro; settings: human
Procedure, shortened: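 Cells (4000/well, pre-attached 24 h) then received 5 μM resazurin for 2 h, with fluorescence measured at ex 560/em 590.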

| Structure (SMILES) | CC50 [1] | CC50 [2] | MIC N. gonorrhoeae FA19 ATCC BAA-1838 [3] | MIC P. aeruginosa GN_105, PmxR [4] | MIC P. aeruginosa ATCC 27853 [5] | MIC A. baumannii ATCC 19606 [6] | MIC K. pneumoniae ATCC BAA-2146, NDM-1 pos [7] | MIC S. aureus ATCC 25923, MSSA [8] | MIC P. aeruginosa GN_043, PmxR [9] | MIC K. pneumoniae GN_102 PmxR [10] | MIC K. pneumoniae ATCC 700603, MDR [11] | MIC K. pneumoniae GN_106, PmxR [12] | MIC K. pneumoniae ATCC 13883 [13] | MIC A. baumannii GN_093 PmxR [15] | MIC, P. aeruginosa ATCC 27853 [5] | MIC, A. baumannii ATCC 19606 [6] | MIC, K. pneumoniae ATCC BAA-2146, NDM-1 pos [7] | MIC, K. pneumoniae ATCC 700603, MDR [11] | MIC, K. pneumoniae ATCC 13883 [13] | MIC, E. coli ATCC 25922 [14] | further results |
| --- | --- | --- | --- | --- | --- | --- | --- | --- | --- | --- | --- | --- | --- | --- | --- | --- | --- | --- | --- | --- | --- |
| CCCCCCC[C@@H](O)CC(=O)N[C@H](CCN)C(=O)N[C@H]1CCNC(=O)[C@H](CC(C)C)NC(=O)[C@H](CCCN)NC(=O)[C@H](CCN)NC(=O)[C@H](CC(C)C)NC(=O)[C@@H](Cc2ccccc2)NC(=O)[C@H](CCN)NC1=O [compound 988, 3(R)OH-nC9CO-D-Dab-cyc[L-Dab-L-Dab-D-Phe-L-Leu-L-Dab-L-Orn-L-Leu]] ({Decanoyl(3R-OH)}-[dDab][Dab][Dab][dF]L[Dab][Orn]L; lactam 2-C) | > 128 µg/mL | 118 µg/mL (≈ 111 µM) | 0.78 µg/mL (≈ 0.737 µM) | 2 µg/mL (≈ 1.89 µM) | 2 µg/mL (≈ 1.89 µM) | 4 µg/mL (≈ 3.78 µM) | 2 µg/mL (≈ 1.89 µM) | 16 µg/mL (≈ 15.1 µM) | 2 µg/mL (≈ 1.89 µM) | 2 µg/mL (≈ 1.89 µM) | 2 µg/mL (≈ 1.89 µM) | 2 µg/mL (≈ 1.89 µM) | 2 µg/mL (≈ 1.89 µM) | 8 µg/mL (≈ 7.56 µM) | – | – | – | – | – | – | MIC E. coli ATCC 25922 [14]: 2 µg/mL (≈ 1.89 µM) |
| CCCCCCC[C@@H](O)CC(=O)N[C@H](CCN)C(=O)N[C@H]1CCNC(=O)[C@H](CC(C)C)NC(=O)[C@H](CCN)NC(=O)[C@H](CN)NC(=O)[C@H](CC(C)C)NC(=O)[C@@H](Cc2ccccc2)NC(=O)[C@H](CCN)NC1=O [compound 990, 3(R)OH-nC9CO-D-Dab-cyc[L-Dab-L-Dab-D-Phe-L-Leu-L-Dap-L-Dab-L-Leu]] ({Decanoyl(3R-OH)}-[dDab][Dab][Dab][dF]L[Dap][Dab]L; lactam 2-C) | > 128 µg/mL | 87 µg/mL (≈ 84.4 µM) | – | – | – | – | – | – | – | – | – | – | – | – | 2 µg/mL (≈ 1.94 µM) | 8 µg/mL (≈ 7.76 µM) | 4 µg/mL (≈ 3.88 µM) | 4 µg/mL (≈ 3.88 µM) | 4 µg/mL (≈ 3.88 µM) | 4 µg/mL (≈ 3.88 µM) | MIC, P. aeruginosa PA9704, PmxR [4]: 4 µg/mL (≈ 3.88 µM); MIC, S. Aureus ATCC 25923, MSSA [8]: 32 µg/mL (≈ 31.1 µM); MIC, P. aeruginosa FADDI-PA070, PmxR [9]: 2 µg/mL (≈ 1.94 µM); MIC, K. pneumoniae Cl Koprana 10065 0661:1, PmxR [10]: 4 µg/mL (≈ 3.88 µM); MIC, K. pneumoniae Cl 138-16347-20362, PmxR [12]: 4 µg/mL (≈ 3.88 µM); MIC, A. baumannii Cl Ptyela 10073 4512:2, PmxR [15]: 16 µg/mL (≈ 15.5 µM); CC50 at 24 h [16]: > 300 µM |
| CCCCCCC[C@@H](O)CC(=O)N[C@H](CCN)C(=O)N[C@H]1CCNC(=O)[C@H](CC(C)C)NC(=O)[C@H](CCN)NC(=O)[C@H](CCNC(=O)[C@@H](N)CCCNC(=N)N)NC(=O)[C@H](CC(C)C)NC(=O)[C@@H](Cc2ccccc2)NC(=O)[C@H](CCN)NC1=O [compound 6654, 3(R)OH-nC9CO-D-Dab-cyc[L-Dab-L-Dab-D-Phe-L-Leu-L-Dab(L-Arg)-L-Dab-L-Leu]] ({Decanoyl(3R-OH)}-[dDab][Dab][Dab][dF]L[Dab](Arg)[Dab]L; lactam 2-C) | > 128 µg/mL | > 128 µg/mL | – | – | – | – | – | – | – | – | – | – | – | – | 4 µg/mL (≈ 3.33 µM) | 8 µg/mL (≈ 6.66 µM) | 8 µg/mL (≈ 6.66 µM) | 4 µg/mL (≈ 3.33 µM) | 4 µg/mL (≈ 3.33 µM) | 4 µg/mL (≈ 3.33 µM) | MIC, P. aeruginosa PA9704, PmxR [4]: 2 µg/mL (≈ 1.67 µM); MIC, S. Aureus ATCC 25923, MSSA [8]: 16 µg/mL (≈ 13.3 µM); MIC, P. aeruginosa FADDI-PA070, PmxR [9]: 2 µg/mL (≈ 1.67 µM); MIC, K. pneumoniae Cl Koprana 10065 0661:1, PmxR [10]: 8 µg/mL (≈ 6.66 µM); MIC, K. pneumoniae Cl 138-16347-20362, PmxR [12]: 16 µg/mL (≈ 13.3 µM); MIC, A. baumannii Cl Ptyela 10073 4512:2, PmxR [15]: 8 µg/mL (≈ 6.66 µM) |
| CCCCCCC[C@@H](O)CC(=O)N[C@@H](CCN)C(=O)N[C@H]1CCNC(=O)[C@H](CC(C)C)NC(=O)[C@H](CCN)NC(=O)[C@H](CCN)NC(=O)[C@H](CC(C)C)NC(=O)[C@@H](Cc2ccccc2)NC(=O)[C@H](CCN)NC1=O [compound 8638, 3(R)OH-nC9CO-L-Dab-cyc[L-Dab-L-DAB-D-Phe-L-Leu-L-Dab-L-Dab-L-Leu]] ({Decanoyl(3R-OH)}-[Dab][Dab][Dab][dF]L[Dab][Dab]L; lactam 2-C) | > 128 µg/mL | > 128 µg/mL | – | 2 µg/mL (≈ 1.92 µM) | – | – | – | – | – | 4 µg/mL (≈ 3.83 µM) | – | 4 µg/mL (≈ 3.83 µM) | – | 32 µg/mL (≈ 30.6 µM) | 1 µg/mL (≈ 0.958 µM) | 32 µg/mL (≈ 30.6 µM) | 8 µg/mL (≈ 7.66 µM) | 8 µg/mL (≈ 7.66 µM) | 4 µg/mL (≈ 3.83 µM) | 2 µg/mL (≈ 1.92 µM) | MIC, S. aureus ATCC 25923, MSSA [8]: 16 µg/mL (≈ 15.3 µM); MIC P. aeruginosa GN_043, PmxR ([9]; Table 6): 8 µg/mL (≈ 7.66 µM) |
| CCCCCCC[C@@H](O)CC(=O)N[C@H](CCN)C(=O)N[C@H]1CCNC(=O)[C@H](CC(C)C)NC(=O)[C@H](CCCNC(=N)N)NC(=O)[C@H](CCN)NC(=O)[C@H](CC(C)C)NC(=O)[C@@H](Cc2ccccc2)NC(=O)[C@H](CCN)NC1=O [compound 8643, 3(R)OH-nC9CO-D-Dab-cyc[L-Dab-L-DAB-D-Phe-L-Leu-L-Dab-L-Arg-L-Leu]] ({Decanoyl(3R-OH)}-[dDab][Dab][Dab][dF]L[Dab]RL; lactam 2-C) | > 128 µg/mL | > 128 µg/mL | 1.56 µg/mL (≈ 1.42 µM) | – | 2 µg/mL (≈ 1.82 µM) | 4 µg/mL (≈ 3.63 µM) | 2 µg/mL (≈ 1.82 µM) | 16 µg/mL (≈ 14.5 µM) | 2 µg/mL (≈ 1.82 µM) | 2 µg/mL (≈ 1.82 µM) | 2 µg/mL (≈ 1.82 µM) | 2 µg/mL (≈ 1.82 µM) | 2 µg/mL (≈ 1.82 µM) | 16 µg/mL (≈ 14.5 µM) | – | – | – | – | – | – | MIC E. coli ATCC 25922 [14]: 1 µg/mL (≈ 0.909 µM) |
